{"source": "patent US6143910A", "about": "“Methods for preparation and use of 1α, 24(S) -dihydroxy vitamin D2” (priority 1998, dated 2000)", "key": {"[1]": {"assay": "Prophylaxis of postmenopausal bone loss in healthy postmenopausal women", "assay_type": "in vivo, human", "details": "at or above 1.0 μg/day", "protocol": "A clinical study is conducted with healthy postmenopausal women having ages between 55 and 60 years. The study involves up to 80 patients randomly divided into two treatment groups, and continues for 24 to 36 months. One treatment group receives a constant dosage of 1α,24(S)-dihydroxy vitamin D2 (u.i.d.; a dose level at or above 1.0 μg/day) and the other receives a matching placebo. The study is conducted as indicated in Example 2 above."}, "[2]": {"assay": "Preventive treatment of bone mass loss in postmenopausal osteoporotic women", "assay_type": "in vivo, human", "details": "at or above 1.0 μg/day, 24 to 36 months", "protocol": "A clinical study is conducted with postmenopausal osteoporotic out-patientshaving ages between 55 and 75 years. The study involves up to 120 patients randomly divided into three treatment groups and continues for 24 to 36 months. Two of the treatment groups receive constant dosages of 1α,24(S)-dihydroxy vitamin D2 (u.i.d.; two different dose levels at or above 1.0 μg/day) and the other group receives a matching placebo. All patients maintain a normal intake of dietary calcium (500 to 800 mg/day) and refrain from using calcium supplements. Efficacy is evaluated by pre- and post-treatment comparisons of the patient groups with regard to (a) total body calcium retention, and (b) radial and spinal bone mineral density as determined by dual-photon absorptiometry (DPA) or dual-energy x-ray absorptiometry (DEXA). Safety is evaluated by comparisons of urinary hydroxyproline excretion, serum and urine calcium levels, creatinine. clearance, blood urea nitrogen, and other routine determinations."}, "HL-60 promyelocytes": {"system": "HL-60 promyelocytes", "assay": "HL-60 cell differentiation assay", "assay_type": "cell-based", "details": "dose-response study", "protocol": "A dose-response study is conducted with 1α,24(S)-(OH)2 D2 in the HL-60 cell differentiation assay as described by DeLuca and Ostrom (DeLuca, H. F. and Ostrem, V. K., Prog. Clin. Biol. Res., vol. 259, pp. 41-55 (1988)). In this study, 1α,25-(OH)2 D3 is used as a positive control and appropriate solvents are used as negative controls. The following variables are evaluated: nonspecific acid esterase activity, nitroblue tetrazolium (NBT) reduction, and thymidine incorporation."}, "Human keratinocytes": {"system": "Human keratinocytes", "assay": "Epidermal cell differentiation and proliferation testing", "assay_type": "cell-based", "details": "0.05 to 5 μg/ml", "protocol": "Human keratinocytes are cultured according to known modifications of the system originally described by Rheinwald and Green (Cell, vol. 6, p. 331 (1975)). The 1α,24(S)-dihydroxy vitamin D2, dissolved in ethanol, is added to cells to yield a variety of concentrations between 0.05 and 5 μg/ml with the ethanol concentration not to exceed 0.5% v/v. Control cultures are supplemented with ethanol at a final concentration of 0.5% v/v.\nDifferentiation and proliferation of epidermal cells in culture is examined by:\n1. quantitation of cornified envelopes;\n2. quantitation of cell density of cells attached to disks;\n3. monitoring transglutaminase activity; or\n4. monitoring DNA synthesis by incorporation of ^3 H-thymidine."}, "[3]": {"molecular_target": "T1, vitamin D serum binding protein (DBP) (Rattus norvegicus, UniProt P04276)", "T1 sequence (P04276 17-476)": "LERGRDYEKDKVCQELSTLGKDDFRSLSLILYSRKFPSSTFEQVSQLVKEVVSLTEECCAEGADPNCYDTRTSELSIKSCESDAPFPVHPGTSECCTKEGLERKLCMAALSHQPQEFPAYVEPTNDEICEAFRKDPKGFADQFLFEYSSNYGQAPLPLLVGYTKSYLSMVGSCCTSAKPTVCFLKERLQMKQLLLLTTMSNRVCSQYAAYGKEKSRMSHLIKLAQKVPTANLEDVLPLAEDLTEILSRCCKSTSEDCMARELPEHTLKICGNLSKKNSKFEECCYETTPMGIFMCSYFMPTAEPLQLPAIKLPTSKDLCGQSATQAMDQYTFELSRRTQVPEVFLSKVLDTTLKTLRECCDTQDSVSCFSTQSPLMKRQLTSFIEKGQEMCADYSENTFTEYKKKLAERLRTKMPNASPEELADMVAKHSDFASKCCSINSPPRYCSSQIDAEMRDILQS", "assay": "Affinity for vitamin D serum binding protein using vitamin D deficient rat serum", "source_text": "In addition, the weak binding by the DBP was indicative of more rapid clearance, allowing for low toxicity."}}, "note": "Where two headings read alike, the source gives them in different places.", "data": [{"compound": "C=C1/C(=C\\C=C2/CCC[C@]3(C)[C@@H]([C@H](C)/C=C/[C@@](C)(O)C(C)C)CC[C@@H]23)C[C@@H](O)C[C@@H]1O", "note": "[1α,24(S)-(OH)2 D2, 1α,24(S)-dihydroxy Vitamin D2]", "values": [{"measurement": "Losses in total body calcium, radial or spinal bone densities versus baseline", "setting": "[1]; 24 to 36 months", "result": "reduced losses"}, {"measurement": "Monitored safety parameters", "setting": "[1]; long-term", "result": "confirm the safety"}, {"measurement": "Incidence of hypercalcemia or hypercalciuria", "setting": "[2]", "result": "insignificant incidence"}, {"measurement": "Total body calcium, radial and spinal bone densities versus placebo", "setting": "[2]", "result": "significantly higher"}, {"measurement": "Promotion of differentiation of HL-60 promyelocytes to monocytes", "setting": "HL-60 promyelocytes", "result": "potent activity"}, {"measurement": "Cell density of attached cells versus control cultures", "setting": "Human keratinocytes", "result": "fewer attached cells"}, {"measurement": "Cornified envelopes versus control cultures", "setting": "Human keratinocytes", "result": "more cornified envelopes"}, {"measurement": "DNA synthesis (3H-thymidine incorporation) versus control cultures", "setting": "Human keratinocytes", "result": "lower DNA synthesis"}, {"measurement": "Transglutaminase activity versus control cultures", "setting": "Human keratinocytes", "result": "higher transglutaminase activity"}, {"measurement": "Binding affinity for the vitamin D serum binding protein (in words)", "setting": "[3]", "result": "relatively poor binding affinity"}, {"measurement": "Binding affinity for the vitamin D serum binding protein (in words)", "setting": "[3]; listed as 1α,24(S)-dihydroxy vitamin D2", "result": "more weakly than does 1,25-(OH)2 D3"}]}]}
